Test results from paper PMC11795524, “Melanin-Binding-Based Discovery of Topically Instilled Carbonic Anhydrase Inhibitors for Targeted Delivery and Prolonged Action in the Eye” (Molecular Pharmaceutics, 2025).
Where two headings read alike, the source gives them in different places.

Tests used:
[1] = In vitro melanin binding by microscale thermophoresis / initial fluorescence (Monolith NT.115 pico); settings: for Melanin binding classification: class by Kd; for Kd: IF or MST mode, 68% confidence
From the text: Melanin binding of the CAI-II compounds was studied with a Monolith NT.115 pico (NanoTemper Technologies GmbH, Munich, Germany) device using the method of […] et al. […] Otherwise, normalized fluorescence signals and the ratio of relative fluorescence after heating (MST mode) were used. The MST software was used in expert mode to allow heating for 30 s. […] As ligand autofluorescence may interfere with the assay, their autofluorescence values were pretested with the detector used in experiment (nanoblue or pico-red). Fluorescence of the ligand should be below 20% of melanin fluorescence. Sample aggregation and adsorption to the capillaries were used also as exclusion criteria.

[2] = tested on: albino rabbits (New Zealand White); test: IOP study in albino rabbits after single eye drop; type: in vivo, rabbit; settings: for AUC0-last ± SD in albino rabbits (IOP decrease vs time): single 25 μL eye drop, CAI 0.5 or 1.0%, dorzolamide 2%, n = 5
Protocol: (§1) Five 3–5 months old albino (New Zealand White, all females) and five 3–6 months old pigmented rabbits (Chinchilla Bastard, 1 male and 4 females) were purchased from Charles River Laboratories, UK and Germany, respectively. Prior to the experiments, the rabbits were habituated to handling, and the baseline values of IOP were measured. During the experiments, rabbits weighed 2.4–4.0 kg.
First, stock solutions of CAIs (250 mg/mL) in dimethyl sulfoxide (Sigma-Aldrich, Germany) were prepared. These stock solutions were diluted with PBS (pH 7.4) to obtain 1 mg/mL (0.1%) or 10 mg/mL (1%) solutions. Water-solubility of the compounds was enhanced with 2-hydroxypropyl-β-cyclodextrin (Sigma-Aldrich, Germany) (Table 1).
(§2) The CAI solutions were tested in albino rabbits (eye drops of 0.1, and 0.5 or 1.0%) and in pigmented rabbits (0.5 or 1.0%). The novel CAI concentrations in solutions were determined based on the drug solubility with the aim to load the highest possible drug concentration to the single eye drop.
(§3) The IOP levels in the rabbits were measured with a tonometer (Tonometer Pro, Icare Finland Ltd.). After baseline IOP measurements, a single eye drop (25 μL) was applied to the left eye, whereas the right eye was not treated. After eye drop instillation, the eyelids were kept open manually for 1 min. The IOP was measured from both eyes of the rabbits at 0.5, 1, 2, 3, 4, 5, 6, 7, and 8 h after eye drop instillation. In the case of the pigmented rabbits, the measurements were continued until 10 h postinstillation, and further until the IOP had returned to the normal baseline.
(§4) The CAIs were tested in the same rabbits to minimize interindividual data variation. Washout periods of at least 3 days were used between instillation of different compounds. The experiments started always at 8 a.m. to eliminate bias due to diurnal IOP fluctuation. At each time point, the pressure was measured three times with the same eye, and the average values were calculated and used in data analysis.

[3] = tested on: pigmented rabbits (Chinchilla Bastard); test: IOP study in pigmented rabbits after single eye drop; type: in vivo, rabbit; settings: for ratio (AUCpigm/AUCalbino) of IOP response: pigmented vs albino rabbits
Protocol: as §1
First, stock solutions of CAIs (250 mg/mL) in dimethyl sulfoxide (Sigma-Aldrich, Germany) were prepared. These stock solutions were diluted with PBS (pH 7.4) to obtain 1 mg/mL (0.1%) or 10 mg/mL (1%) solutions.
as §2
Baseline IOP of pigmented rabbits was raised with two intravitreal triamcinolone acetonide injections (Triesence 40 mg/mL, Novartis Finland Ltd.) with 1 week interval to each eye. This method[25],[26] may induce ocular hypertension even up to 60 days in rabbits.[25]
The rabbits were anesthetized with 0.4 mg/kg, s.c. medetomidine (Domitor vet 1 mg/mL, Orion Pharma, Espoo, Finland) and 20 mg/kg s.c. ketamine (Ketaminol vet 50 mg/mL, Pfizer Oy Animal Health, Espoo, Finland). Mydriasis was induced with topical tropicamide eyedrops (Oftan Tropicamid 5 mg/mL, Santen Pharmaceutical Co., Ltd., Tampere, Finland) and the ocular surface was anesthetized with oxybuprocaine eye drop (Oftan Obucain 4 mg/mL, Santen Pharmaceutical Co., Ltd., Tampere, Finland). Thereafter, intravitreal injection of triamcinolone acetonide (100 μL) was given with a 31G needle and syringe. After injection, the eyes were moisturized with carbomer gel (Viscotears 2 mg/g, Dr. Gerhard Mann chem.-pharm. Fabrik GmbH, Berlin, Germany) and the anesthesia was antagonized with 1 mg/kg atipamezole s.c. (Antisedan vet 5 mg/mL, Orion Pharma, Espoo, Finland).
After the second injection, IOP was allowed to settle for 10 days before the experiments were performed. […] Induction of ocular hypertension is presented in Appendix Figure 3. The IOP-lowering effects of the molecules were investigated sequentially, each test initiating once baseline IOP levels was attained.
as §3, §4

[4] = molecular target: recombinant human carbonic anhydrase II; design: method as in earlier work; settings: stopped flow kinetics protocol; read-out: Ki against hCA II; cited from earlier work
[5] = molecular target: T1, human carbonic anhydrase II (Homo sapiens, UniProt P00918); test: Multiparametric surface plasmon resonance (MP-SPR) interaction kinetics with immobilized hCAII; type: binding
T1 construct: purchased Sigma
Protocol: All MP-SPR measurements were conducted at 25 °C using carboxymethyl dextran hydrogel-coated (CMD-3DM) sensors (BioNavis) and were based on the protocol described by Rogez-Florent et al.[22]
Human carbonic anhydrase isoenzyme II (Sigma) was immobilized using a standard amine coupling procedure with the Amine Coupling Kit (BioNavis) and phosphate buffered saline (PBS) (20 mM phosphate buffer, 150 mM NaCl, pH 7.4) as the background buffer. Before immobilization, the sensor surface was cleaned with 2 M sodium chloride and 10 mM sodium hydroxide for 6 min at a flow rate of 30 μL/min. Then, a constant flow rate of 10 μL/min was maintained throughout the immobilization steps. The surface was activated for 7 min with 200 mM 1-ethyl-3-(3-(dimethylamino)propyl)-carbodiimide (EDC) and 50 mM N-hydroxysuccinimide, immediately followed by a 5 min injection of 45 μg/mL hCAII solution in 10 mM acetate buffer, pH 5.5. In the reference flow channel, no enzyme was immobilized. Residual activated groups of the dextran matrix were deactivated by a 7 min injection of 1 M ethanolamine HCl, pH 8.3.
For analyzing CAIs, 1% (v/v) DMSO in PBS, pH 7.4, was used as a running buffer. All CAIs were dissolved in 100% DMSO and stored as 50 mM stock solutions. These stock solutions were further diluted with the running buffer and analyzed using a 3-fold (3–1000 nM) dilution series. […] Each analyte was injected at a flow rate of 100 μL/min, with an association time of 2 min and a dissociation time of 10 min. […] Seven concentrations were measured for each CAI per cycle, and a “wash all” step with running buffer was performed at the end of each cycle to minimize the carry over effects. Each CAI were assayed in triplicate across three independent experiments.
The acquired data were processed using MP-SPR Navi Data Viewer software (version 6.7.0.1, BioNavis) employing the weighted centroid method for determining the SPR peak angular position. Signals from the reference flow channel were subtracted from the corresponding signals of the flow channel containing immobilized hCAII. The moment of sample injection was selected as the zero-time point, where both the time and MP-SPR response were set to zero. Processed data were globally fitted to a simple 1:1 interaction model using TraceDrawer software (version 1.9.2, Ridgeview Instruments AB, Sweden) to obtain kinetic parameters.

pigmented rabbits [6] = tested on: pigmented rabbits; design: method as in PMID 1263134, PMID 955835; settings: topical eye drops; cited from earlier work
albino rabbits [7] = tested on: albino rabbits; design: method as in PMID 1263134, PMID 955835; settings: topical eye drops; cited from earlier work
[8] = topical, rabbits; cited from earlier work
pigmented rabbits [9] = tested on: pigmented rabbits; design: method as in PMID 37130851; settings: intracameral injections; cited from earlier work
albino rabbits [10] = tested on: albino rabbits; design: method as in PMID 31515057, PMID 34274401; settings: cited from earlier work
albino rats = tested on: albino rats; design: method as in PMID 25481859; settings: cited from earlier work
[11] = melanin nanoparticles 0.5 mg/mL, read-out: Kd ± confidence (melanin binding)
[12] = Appendix table 1, Nano or Pico detector, read-out: Melanin binding affinity Kd ± confidence
[13] = MP-SPR, 25 °C, 1:1 model, read-out: KD

Row | Structure (SMILES) | Melanin binding classification [1] | Kd [1, 12] [µM] | ka ([5]; MP-SPR, 25 °C, 1:1 model) | kd ([5]; MP-SPR, 25 °C, 1:1 model) | Kd [5, 13] [µM] | further results
1 | NS(=O)(=O)c1ccc(-n2ncc(N3CCCCCC3)cc2=O)cc1 [A12] | intermediate (intermediate (65–650 μM)) |  |  |  |  | Kd [1, 11]: 176 ± 159 µM; AUC0-last ± SD in albino rabbits (IOP decrease vs time) [2]: 13.80 ± 10.06 mmHg x h; ratio (AUCpigm/AUCalbino) of IOP response [3]: 9.0; Ki [4]: 0.06 ± 0.001 nM
2 | CC(=NNc1ccc(S(N)(=O)=O)cc1)c1cnc2ccccc2n1 [A17] |  | 483 ± 137 | 0.13 ± 0.05 10^6 M^–1 s^–1 | 1.27 ± 0.11 10^–2 s^–1 | 0.113 ± 0.0507 | 
3 | NS(=O)(=O)c1ccc(NN=C(c2cncc(F)c2)C2CC2)cc1 [A07] |  | 115 ± 85 | 0.24 ± 0.05 10^6 M^–1 s^–1 | 1.78 ± 0.40 10^–2 s^–1 | 0.0756 ± 0.0112 | Kd ([5]; surface plasmon resonance, Appendix table 1, read-out: Kd against hCA II): 0.0756 ± 0.0112 µM
4 | CN1[C@@H]2CC[C@H]1C[C@@H](OC(=O)C(CO)c1ccccc1)C2 (some centres unmarked) [Atropine] |  |  |  |  |  | Kd [1, 11]: 758 ± 848 µM; duration of mydriatic effect (pigmented rabbits [6]): > 96 h; duration of mydriatic effect (albino rabbits [7]): 43.5 h
5 | CC(=NNc1ccc(S(N)(=O)=O)cc1)c1cncc(Br)c1 [A19] |  | 561 ± 299 | 0.15 ± 0.04 10^6 M^–1 s^–1 | 2.25 ± 0.02 10^–2 s^–1 | 0.161 ± 0.041 | 
6 | CC(=NNc1ccc(S(N)(=O)=O)cc1)c1nccnc1C [A05] |  | 97 ± 44 | 0.61 ± 0.25 10^6 M^–1 s^–1 | 1.70 ± 0.25 10^–2 s^–1 | 0.0315 ± 0.00919 | 
7 | NS(=O)(=O)c1ccc(-n2ncc(N3CCOCC3)cc2=O)cc1 [A22] | low (low binders (>650 μM)) |  |  |  |  | AUC0-last ± SD in albino rabbits (IOP decrease vs time) [2]: 10.50 ± 8.73 mmHg x h; AUC0-last ± SD in pigmented rabbits (IOP decrease vs time) ([3]; hypertensive (triamcinolone) rabbits, single 25 μL eye drop, CAI 0.5 or 1.0%, dorzolamide 2%, n = 5): 88.10 ± 63.04 mmHg × h; ratio (AUCpigm/AUCalbino) of IOP response [3]: 8.4; Ki [4]: 0.55 ± 0.01 nM
8 | CCN[C@H]1CN(CCCOC)S(=O)(=O)c2sc(S(N)(=O)=O)cc21 [Brinzolamide] |  |  |  |  |  | absolute ocular bioavailability [8]: 0.10%
9 | CC(=NNc1ccc(S(N)(=O)=O)cc1Br)c1cccnc1 [A15] |  | 230 ± 85 | 0.43 ± 0.25 10^6 M^–1 s^–1 | 1.25 ± 0.43 10^–2 s^–1 | 0.046 ± 0.0298 | 
10 | Brc1c(NC2=NCCN2)ccc2nccnc12 [Brimonidine, reference compound] | high (high (<65 μM)) |  |  |  |  | Kd [1, 11]: 25 µM; duration of IOP decrease (pigmented rabbits [9]): 7 days
11 | CCN[C@H]1C[C@H](C)S(=O)(=O)c2sc(S(N)(=O)=O)cc21 [Dorzolamide, reference compound] | intermediate (intermediate (65–650 μM)) |  |  |  |  | duration of IOP decrease ([2]; albino rabbits, single eye drop (0.5–1% CAI, 2% dorzolamide)): < 8 h; AUC0-last ± SD in albino rabbits (IOP decrease vs time) [2]: 15.55 ± 10.64 mmHg x h; IOP reduction in normotensive pigmented rabbits ([3]; Chinchilla Bastard rabbits with normal (low) ocular pressure, before triamcinolone): no IOP reduction; duration of IOP-responses (albino rabbits [10]): ~6 h; duration of IOP-responses (albino rats): ~4 h
